Measurements reported in BindingDB's records for patent US20240174674 (Applied Pharmaceutical Science, 2024).

Columns and labels:
[1] = target: Proto-oncogene tyrosine-protein kinase receptor Ret [G810R] (Human, UniProt P07949, G810R); assay: HTRF Assay
[2] = target: Proto-oncogene tyrosine-protein kinase receptor Ret [V804M] (Human, UniProt P07949, V804M); assay: HTRF Assay
Proto-oncogene tyrosine-protein kinase receptor Ret [V804M], sequence (P07949 29-1114 V804M limits assumed): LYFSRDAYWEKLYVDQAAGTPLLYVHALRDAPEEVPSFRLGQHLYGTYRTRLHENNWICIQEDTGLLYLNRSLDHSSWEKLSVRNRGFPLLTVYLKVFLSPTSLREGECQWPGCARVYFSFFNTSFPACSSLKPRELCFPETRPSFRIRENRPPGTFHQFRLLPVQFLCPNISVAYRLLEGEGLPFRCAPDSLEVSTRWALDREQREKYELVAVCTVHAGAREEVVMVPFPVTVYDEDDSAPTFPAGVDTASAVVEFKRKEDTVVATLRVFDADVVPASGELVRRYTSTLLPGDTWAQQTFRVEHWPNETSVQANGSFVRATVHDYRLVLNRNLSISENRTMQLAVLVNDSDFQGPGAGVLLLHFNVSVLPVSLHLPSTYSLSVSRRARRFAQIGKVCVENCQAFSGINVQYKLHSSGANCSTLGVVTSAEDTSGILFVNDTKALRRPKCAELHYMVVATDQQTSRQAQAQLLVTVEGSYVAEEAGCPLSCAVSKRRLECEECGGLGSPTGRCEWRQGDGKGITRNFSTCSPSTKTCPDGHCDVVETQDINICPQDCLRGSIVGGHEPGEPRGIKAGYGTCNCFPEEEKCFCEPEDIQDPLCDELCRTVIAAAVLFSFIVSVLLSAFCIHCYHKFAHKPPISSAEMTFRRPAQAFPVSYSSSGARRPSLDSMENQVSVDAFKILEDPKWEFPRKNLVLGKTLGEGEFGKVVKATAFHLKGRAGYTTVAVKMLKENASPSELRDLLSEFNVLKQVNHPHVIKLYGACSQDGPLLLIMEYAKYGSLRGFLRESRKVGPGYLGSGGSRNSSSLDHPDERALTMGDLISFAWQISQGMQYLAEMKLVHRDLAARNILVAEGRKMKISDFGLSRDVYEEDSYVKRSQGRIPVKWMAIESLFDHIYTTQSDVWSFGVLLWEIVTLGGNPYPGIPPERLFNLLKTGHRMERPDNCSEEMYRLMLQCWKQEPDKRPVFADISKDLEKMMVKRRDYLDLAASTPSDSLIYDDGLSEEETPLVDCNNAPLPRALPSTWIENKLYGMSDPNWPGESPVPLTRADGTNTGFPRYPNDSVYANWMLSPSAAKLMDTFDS

Proto-oncogene tyrosine-protein kinase receptor Ret [G810R], sequence (P07949 29-1114 G810R limits assumed): as the sequence (P07949 29-1114 V804M limits assumed) above, with M776V, G782R counted along it

IC50 [1] | IC50 [2] | Structure (SMILES)
2.6 nM |  | CCOc1cc(-c2ccc(N3C[C@H](Oc4ccccn4)[C@@H](N)C3)nc2)c2c3cn[nH]c3nn2c1 [US20240174674, Compound 31]
2.2 nM | 0.1 nM | CCOc1cc(-c2ccc(N3CC[C@H](NC(=O)CC(C)C)[C@H](O)C3)nc2)c2c3cn[nH]c3nn2c1 [US20240174674, Compound 40]
12.1 nM |  | CCOc1cc(-c2ccc(N3C[C@H]4C[C@@H](NC(=O)c5c(F)cccc5Cl)C[C@H]4C3)nc2)c2c3cn[nH]c3nn2c1 [US20240174674, Compound 176]
5 nM |  | CCOc1cc(-c2ccc(N3CC[C@H](NC(=O)c4ncc(F)cc4Cl)[C@H](O)C3)nc2)c2c3cn[nH]c3nn2c1 [US20240174674, Compound 285]
